Laboratory results published in patent publication US10611740B2, “Aryl dihydro-2H-benzo[b][1,4]oxazine sulfonamide and related compounds for use as agonists of RORγ and the treatment of disease” (Lycera Corporation, priority 2015, dated 2020).

Key:
RORγ-LBD = target: T1, RORγ-LBD (Homo sapiens, UniProt P51449); assay: RORγ-Ligand Binding Domain (LBD) TR-FRET Assay; assay type: biochemical;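 for TR-FRET Assay Max Response: 665/615 nm ratio relative to signal without ursolic acid or compound set at 100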
T1 construct: made in house; host or cells: SF9 cells (baculovirus)
T1 sequence (P51449 269-508 limits assumed): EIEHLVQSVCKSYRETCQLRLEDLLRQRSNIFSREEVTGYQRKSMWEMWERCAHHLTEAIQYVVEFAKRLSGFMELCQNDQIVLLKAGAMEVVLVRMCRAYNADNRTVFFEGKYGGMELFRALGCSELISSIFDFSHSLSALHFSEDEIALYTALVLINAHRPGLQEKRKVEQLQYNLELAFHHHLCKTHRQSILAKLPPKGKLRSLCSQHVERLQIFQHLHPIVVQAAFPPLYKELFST
Outline: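 Lysate from SF9 cells expressing His-RORγ-LBD is diluted to about 3 nM final in 50 mM Tris pH 7.0 assay buffer. A biotin-tagged SRC1 LXXLL peptide goes in at 200 nM final, plus ursolic acid at 2 μM final. Test compounds carry 1% DMSO final; signal read by TR-FRET.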

Gal4-RORγ-LBD = target: T2, Gal4-RORγ-LBD (Homo sapiens, UniProt P51449); assay: Gal4-RORγ Luciferase Reporter Assay in HEK-293T Cells; assay type: cell-based; conditions: HEK-293 cells
T2 construct: expressed in transfected cells; host or cells: HEK-293 cells (pcDNA3.1neo plasmid)
T2 sequence (P51449 269-508 limits assumed): T1 sequence (P51449 269-508 limits assumed)
Outline: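 In transfected HEK-293 cells (Gal4-RORγ-LBD, Gal4-luciferase), test agents with 2 μM ursolic acid were incubated overnight at 37 °C before luminescent detection. Values are relative to the ursolic-acid-free, compound-free signal (100).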

[1] = luciferase reporter, with 2 μM ursolic acid

| Compound | EC50 (RORγ-LBD) [nM] | TR-FRET Assay Max Response (RORγ-LBD) | EC50 (Gal4-RORγ-LBD; 2 μM ursolic acid) [nM] | Gal4-RORγ Assay Max Response (Gal4-RORγ-LBD; 2 μM ursolic acid) | EC50 (Gal4-RORγ-LBD; [1]) [nM] | Gal4-RORγ Assay Max Response (Gal4-RORγ-LBD; [1]) |
| --- | --- | --- | --- | --- | --- | --- |
| CC(C)(C[C@H]1CN(S(=O)(=O)c2cccc(C(F)(F)F)c2)c2cc(-c3cc(Cl)cc(F)c3Cl)ccc2O1)C(=O)O [Compound 32AW, (S)-3-(6-(2,5-dichloro-3-fluoro-phenyl)-4-((3-(trifluoromethyl)-phenyl)sulfonyl)-3,4-dihydro-2H-benzo[b][1,4]oxazin-2-yl)-2,2-dimethylpropanoic acid] | < 500 | ** (The symbol “**” indicates a value in the range of greater than 90 to 150) | < 500 | ** (The symbol “**” indicates a value in the range of greater than 90 to 150) |  |  |
| Cc1cccc(-c2ccc3c(c2)N(S(=O)(=O)c2cccc(C(F)(F)F)c2)C[C@H](CC(C)(C)C(=O)O)O3)c1Cl [Compound 32AX, (S)-3-(6-(2-chloro-3-methyl-phenyl)-4-((3-(trifluoromethyl)-phenyl)sulfonyl)-3,4-dihydro-2H-benzo[b][1,4]oxazin-2-yl)-2,2-dimethylpropanoic acid] | < 500 | ** (The symbol “**” indicates a value in the range of greater than 90 to 150) | < 500 | ** (The symbol “**” indicates a value in the range of greater than 90 to 150) |  |  |
| Cc1c(Cl)cccc1-c1ccc2c(c1)N(S(=O)(=O)c1cccc(C(F)(F)F)c1)C[C@H](CC(C)(C)C(=O)O)O2 [Compound 32AZ, (S)-3-(6-(3-chloro-2-methyl-phenyl)-4-((3-(trifluoromethyl)-phenyl)sulfonyl)-3,4-dihydro-2H-benzo[b][1,4]oxazin-2-yl)-2,2-dimethylpropanoic acid] | < 500 | ** (The symbol “**” indicates a value in the range of greater than 90 to 150) | < 500 | ** (The symbol “**” indicates a value in the range of greater than 90 to 150) |  |  |
| COc1cccc(-c2ccc3c(c2)N(S(=O)(=O)c2cccc(C(F)(F)F)c2)C[C@H](CC(C)(C)C(=O)O)O3)c1 [Compound 32B, (S)-3-(6-(3-methoxyphenyl)-4-((3-(trifluoromethyl)phenyl)sulfonyl)-3,4-dihydro-2H-benzo[b][1,4]oxazin-2-yl)-2,2-dimethylpropanoic acid] | < 500 | *** (The symbol “***” indicates a value in the range of greater than 150 to 200) |  |  | < 500 | ** (The symbol “**” indicates a value in the range of greater than 90 to 150) |
| Cc1cccc(C)c1-c1ccc2c(c1)N(S(=O)(=O)c1cccc(C(F)(F)F)c1)C[C@H](CC(C)(C)C(=O)O)O2 [Compound 32BA, (S)-3-(6-(2,6-dimethylphenyl)-4-((3-(trifluoromethyl)phenyl)-sulfonyl)-3,4-dihydro-2H-benzo[b][1,4]oxazin-2-yl)-2,2-dimethylpropanoic acid] | < 500 | *** (The symbol “***” indicates a value in the range of greater than 150 to 200) | 500 to 5000 | ** (The symbol “**” indicates a value in the range of greater than 90 to 150) |  |  |
| Cc1cc(Cl)cc(-c2ccc3c(c2)N(S(=O)(=O)c2cccc(C(F)(F)F)c2)C[C@H](CC(C)(C)C(=O)O)O3)c1 [Compound 32BB, (S)-3-(6-(3-chloro-5-methyl-phenyl)-4-((3-(trifluoromethyl)-phenyl)sulfonyl)-3,4-dihydro-2H-benzo[b][1,4]oxazin-2-yl)-2,2-dimethylpropanoic acid] | < 500 | * (The symbol “*” indicates a value in the range of 25 to 90) | < 500 | ** (The symbol “**” indicates a value in the range of greater than 90 to 150) |  |  |
| CC(C)(C[C@H]1CN(S(=O)(=O)c2cccc(C(F)(F)F)c2)c2cc(-c3cccc(F)c3C(F)(F)F)ccc2O1)C(=O)O [Compound 32BC, (S)-3-(6-(3-fluoro-2-(trifluoromethyl)phenyl)-4-((3-(trifluoromethyl)phenyl)sulfonyl)-3,4-dihydro-2H-benzo[b][1,4]oxazin-2-yl)-2,2-dimethylpropanoic acid] | < 500 | ** (The symbol “**” indicates a value in the range of greater than 90 to 150) | < 500 | ** (The symbol “**” indicates a value in the range of greater than 90 to 150) |  |  |
| O=C(O)C1(C[C@H]2CN(S(=O)(=O)c3cccc(C(F)(F)F)c3)c3cc(-c4cc(F)cc(F)c4)ccc3O2)CCC1 [Compound 32BD, (S)-1-((6-(3,5-difluorophenyl)-4-((3-(trifluoromethyl)phenyl)-sulfonyl)-3,4-dihydro-2H-benzo[b][1,4]oxazin-2-yl)methyl)cyclobutane-1-carboxylic acid] | < 500 | ** (The symbol “**” indicates a value in the range of greater than 90 to 150) | < 500 | ** (The symbol “**” indicates a value in the range of greater than 90 to 150) |  |  |
| O=C(O)C1(C[C@H]2CN(S(=O)(=O)c3cccc(C(F)(F)F)c3)c3cc(-c4cc(F)ccc4F)ccc3O2)CCC1 [Compound 32BE, (S)-1-((6-(2,5-difluorophenyl)-4-((3-(trifluoromethyl)phenyl)-sulfonyl)-3,4-dihydro-2H-benzo[b][1,4]oxazin-2-yl)methyl)cyclobutane-1-carboxylic acid] | < 500 | ** (The symbol “**” indicates a value in the range of greater than 90 to 150) | < 500 | ** (The symbol “**” indicates a value in the range of greater than 90 to 150) |  |  |
| O=C(O)C1(C[C@H]2CN(S(=O)(=O)c3cccc(C(F)(F)F)c3)c3cc(-c4cccc(Cl)c4F)ccc3O2)CCC1 [Compound 32BF, (S)-1-((6-(3-chloro-2-fluoro-phenyl)-4-((3-(trifluoromethyl)-phenyl)sulfonyl)-3,4-dihydro-2H-benzo[b][1,4]oxazin-2-yl)-methyl)cyclobutane-1-carboxylic acid] | < 500 | *** (The symbol “***” indicates a value in the range of greater than 150 to 200) | < 500 | ** (The symbol “**” indicates a value in the range of greater than 90 to 150) |  |  |
| CC(C)(C[C@H]1CN(S(=O)(=O)c2cccc(C(F)(F)F)c2)c2cc(-c3cc(F)cc(OC(F)F)c3F)ccc2O1)C(=O)O [Compound 32BG, (S)-3-(6-(3-(difluoromethoxy)-2,5-difluorophenyl)-4-((3-(trifluoromethyl)phenyl)sulfonyl)-3,4-dihydro-2H-benzo[b][1,4]-oxazin-2-yl)-2,2-dimethyl-propanoic acid] | < 500 | ** (The symbol “**” indicates a value in the range of greater than 90 to 150) | < 500 | ** (The symbol “**” indicates a value in the range of greater than 90 to 150) |  |  |
| O=C(O)C1(C[C@H]2CN(S(=O)(=O)c3cccc(C(F)(F)F)c3)c3cc(-c4cc(F)cc(OC(F)F)c4)ccc3O2)CCC1 [Compound 32BH, (S)-1-((6-(3-(difluoromethoxy)-5-fluorophenyl)-4-((3-(trifluoro-methyl)phenyl)sulfonyl)-3,4-dihydro-2H-benzo[b][1,4]oxazin-2-yl)methyl)cyclobutane-l-carboxylic acid] | < 500 | *** (The symbol “***” indicates a value in the range of greater than 150 to 200) | 500 to 5000 | ** (The symbol “**” indicates a value in the range of greater than 90 to 150) |  |  |
| CC(C)(C[C@H]1CN(S(=O)(=O)c2cccc(C(F)(F)F)c2)c2cc(-c3cc(OC(F)F)ccc3F)ccc2O1)C(=O)O [Compound 32BI, (S)-3-(6-(5-(difluoromethoxy)-2-fluorophenyl)-4-((3-(trifluoromethyl)phenyl)sulfonyl)-3,4-dihydro-2H-benzo[b][1,4]oxazin-2-yl)-2,2-dimethylpropanoic acid] | < 500 | *** (The symbol “***” indicates a value in the range of greater than 150 to 200) | < 500 | ** (The symbol “**” indicates a value in the range of greater than 90 to 150) |  |  |
| CC(C)(C[C@H]1CN(S(=O)(=O)c2cccc(C(F)(F)F)c2)c2cc(-c3cccc(OC(F)F)c3F)ccc2O1)C(=O)O [Compound 32BJ, (S)-3-(6-(3-(difluoromethoxy)-2-fluorophenyl)-4-((3-(trifluoromethyl)phenyl)sulfonyl)-3,4-dihydro-2H-benzo[b][1,4]oxazin-2-yl)-2,2-dimethylpropanoic acid] | < 500 | *** (The symbol “***” indicates a value in the range of greater than 150 to 200) | < 500 | ** (The symbol “**” indicates a value in the range of greater than 90 to 150) |  |  |
